We go through one compound from patent publication US8754047B2, “Peptide compositions and methods of use” (The Research Foundation for the State University of New York, priority 2008, dated 2014).

Positions of bridges follow the written chain, without caps; N, C: chain ends. Residues, ends and D or L forms follow the SMILES beside them.

Data set [1] concerns SW480 human colon cancer cells. Briefly: In vitro cell viability assay by MTT / cell Titer-Glo, SW480. The method, then:
(§1) 10,000 HT29 or SW480 human colon cancer cells, BxPC-3 human pancreatic cancer cells, and MCF7 and MDA-MB-231 breast cancer cells were obtained from American Type Culture Collection (ATTC), Manassas, Va., and were seeded in separate 96-well plates. After treatment with various concentrations (6.25 μM, 12.5 μM, 25 μM, 50 μM, 100 μM, or 200 μM) of test peptide for 24 h, cells were stained with MTT (3-(4,5-Dimethyl-2-thiazolyl)-2,5-diphenyl-2H-tetrazolium bromide, from Sigma-Aldrich) following the instructions of the manufacturer. Before dissolving MTT in SDS, the HT29 and SW480 cells were photographed using a digital camera connected with a phase-contrast microscope. (FIG. 2A1-8, and FIG. 2B1-6). Cells that are alive convert MTT into formazan in their active mitochondria and appear dark purple; dead cells are not stained by MTT and appear colorless.
(§2) The IC50 is the concentration of the test agent that inhibits cell growth by 50% at 24 hours of exposure. IC50s were determined using the MTT assay or using the cell Titer-Glo method and following the instructions of the manufacturer ([…]). […] (Sun, Y., and Rigas, B., (2008), Cancer Res., 68(20): 8269-8277).
The effect of peptide YJB02 on SW480 colon cancer cells was compared to the effect of peptide YJB02 on the normal human colon epithelial cell line NCM460. […] The viability was determined as described in Example 2.
(In general: In ATP-based viability assays light output follows the ATP content of the culture.)

In data set [2] the test system is BxPC-3 human pancreatic cancer cells. Particulars: read-out: IC50s, BxPC3; inhibits cell growth by 50% at 24 hours of exposure; MTT or cell Titer-Glo. On the procedure: as §1, §2
Another data set has as its system MCF7 breast cancer cells. Conditions: read-out: IC50s, MCF7; inhibits cell growth by 50% at 24 hours of exposure; MTT or cell Titer-Glo. On the procedure:
as §1, §2

For data set [3], the system named is MDA-MB-231 breast cancer cells. Particulars: read-out: IC50s, MDA-MB-231; inhibits cell growth by 50% at 24 hours of exposure; MTT or cell Titer-Glo. The method, then: as §1, §2
For data set [4], the system named is SW480 human colon cancer xenografts. Nature of the data set: SW480 human colon cancer xenografts in nude mice, tumor volume. The class given is in vivo. Particulars: 500 μg/day intraperitoneally for 19 days. On the procedure:
Xenografts were generated as described in FIG. 3A-B and Example 3 except where noted. Each animal had two xenografts, one on its right flank and one on the left. In these studies, the effect of two doses of YJB01, 100 μg and 500 μg per animal were evaluated. The doses were administrated intraperitoneally once a day dissolved in phosphate buffered saline (PBS). Control animals were injected with PBS. Tumor volume was determined as described in Example 3. Tumor volume is expressed as mean±SEM.
Xenografts were generated as described in the Example 3 except where noted. Each animal had two xenografts, one on its right flank and one on the left. In these studies, the effect of two doses of YJB01, 100 μg and 500 μg per animal were evaluated. The doses were administrated intraperitoneally once a day dissolved in phosphate buffered saline (PBS). Control animals were injected with PBS. Tumor volume was determined as described in Example 3. Tumor volume is expressed as mean±SEM.
Xenografts were generated as described in the Example 3 except that 8 Balb/c nude mice in each group were used in this experiment. Nude mice bearing SW480 xenografts were treated with 500 μg/day of YJB02 for 19 days. The doses were administrated intraperitoneally once a day dissolved in phosphate buffered saline (PBS). Control animals were treated with PBS.
Tumor volume was determined as described in Example 3. Tumor volume was monitored and graphed as set forth in FIG. 9A, and is expressed as mean±SEM.
A general note: In xenograft studies the graft and the host belong to different species.

In data set [5] the test system is SW480 tumor cells. Briefly: TUNEL staining of xenograft tumor tissue for apoptosis. Conditions: tumors of mice treated 500 μg/day for 19 days. It is filed as in vivo, nude mice. On the procedure:
(§3) Tumor tissue from the mice treated with PBS or YJB02 as described in Example 8 were utilized in this experiment. Cell death was determined by terminal deoxynucleotidyl transferase dUTP nick end labeling (TUNEL) staining sections of paraffin embedded tissues, as previously described (Ouyang, N., Williams, J. L., Tsioulias, G. J., Gao, J., Iatropoulos, M. J., Kopelovich, L., Kashfi, K., and Rigas, B. 2006. Nitric oxide-donating aspirin prevents pancreatic cancer in a hamster tumor model. Cancer Res 66:4503-4511). Cell proliferation was determined by staining sections of paraffin embedded tissues for Ki-67 (Santa Cruz Biotechnology, Calif.) as previously described (Id.)
Slides were stained with TUNEL kit for apoptosis (available from Roche Applied Science, Indianapolis, Ind., US).

The test system of data set [6] is SW480 tumor cells. Nature of the data set: Ki-67 staining of xenograft tumor tissue for cell proliferation. It is filed as in vivo, nude mice. Particulars: tumors of mice treated 500 μg/day for 19 days. On the procedure:
as §3
Tissue slides from control or YJB02 treated tumors were stained with anti-Ki67 antibody (Santa Cruz Biotechnology, Santa Cruz, Calif., US). As shown in the lower panel of FIG. 10, YJB02 inhibited tumor cell proliferation. […] Slides were counter-stained with hematoxylin.

Data set [7] concerns the target T1, thioredoxin reductase (Rattus norvegicus, UniProt O89049).
T1 sequence (O89049 1-499): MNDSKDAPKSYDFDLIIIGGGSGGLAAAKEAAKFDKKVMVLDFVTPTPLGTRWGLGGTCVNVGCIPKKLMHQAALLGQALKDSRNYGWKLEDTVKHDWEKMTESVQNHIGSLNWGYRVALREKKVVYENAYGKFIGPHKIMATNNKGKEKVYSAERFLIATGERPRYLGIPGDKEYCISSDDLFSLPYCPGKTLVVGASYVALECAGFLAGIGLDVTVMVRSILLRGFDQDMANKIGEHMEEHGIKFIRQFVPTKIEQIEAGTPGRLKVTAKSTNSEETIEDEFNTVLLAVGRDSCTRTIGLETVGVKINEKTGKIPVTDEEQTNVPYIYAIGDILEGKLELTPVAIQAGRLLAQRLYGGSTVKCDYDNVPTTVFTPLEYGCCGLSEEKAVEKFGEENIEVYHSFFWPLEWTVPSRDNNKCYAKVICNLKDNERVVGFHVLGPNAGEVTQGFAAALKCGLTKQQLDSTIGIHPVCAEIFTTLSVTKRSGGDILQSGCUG
Method: (§4) The activity was determined based on the change in absorbance (ΔA412) per minute (ΔA412/min).

A further data set can be described thus: in vitro. Particulars: human, NCM460 normal colon epithelial cells.
Data set [8] concerns the target T1, thioredoxin reductase. Briefly: biochemical.
Method: as §4

By viability is commonly meant a per cent measure of how many cells are alive, often set against a control. A higher viability goes with less harm to the cells.

For `CC[C@H](C)[C@H](NC(=O)[C@H](CCCCN)NC(=O)[C@@H](NC(=O)[C@H](CCC(N)=O)NC(=O)[C@H](CCCNC(=N)N)NC(=O)[C@@H]1CCCN1C(=O)[C@@H](NC(=O)[C@@H]1CSSC[C@H](NC(=O)[C@@H](NC(=O)CN)[C@@H](C)O)C(=O)N[C@@H](C(C)C)C(=O)N[C@@H](CC(N)=O)C(=O)N[C@@H](C(C)C)C(=O)NCC(=O)N1)[C@@H](C)CC)[C@@H](C)CC)C(=O)N[C@@H](Cc1c[nH]c2ccccc12)C(=O)N[C@@H](Cc1ccccc1)C(=O)N[C@@H](CCC(N)=O)C(=O)N[C@@H](CC(N)=O)C(=O)N[C@@H](CCCNC(=N)N)C(=O)N[C@@H](CCCNC(=N)N)C(=O)N[C@@H](CCSC)C(=O)N[C@@H](CCCCN)C(=O)N[C@@H](Cc1c[nH]c2ccccc12)C(=O)N[C@@H](CCCCN)C(=O)N[C@@H](CCCCN)C(=O)O` [YJB02] (H-GTCVNVGCIPRQIKIWFQNRRMKWKK-OH; disulfide 3-8; N-terminus and C-terminus assumed), the “SW480 cells remained viable” value in data set [1] (200 μmol/L, 24-hour treatment) was determined as 20%. The IC50 in [1] (read-out: IC50s, SW480, inhibits cell growth by 50% at 24 hours of exposure, MTT or cell Titer-Glo) was less than 12.5 µM; in data set [2], 36 to 76 µM; with MCF7 breast cancer cells it was 213 µM; in data set [3], 243 µM; against thioredoxin reductase [8], 0.036 µM. In [4] (day 19, control 635 mm^3), this compound returned a tumor volume of 207 mm^3. For the same compound, in [4] (vs control), the “reduction in SW480 tumor growth” value turned out to be 67%. In the data set on SW480 tumor cells [5], the “TUNEL (+) cells in tumor tissue” value is reported as “induced more TUNEL (+) cells than control tumors”. Besides, the “Ki67 (+) signals in tumor tissue” value with SW480 tumor cells [6] is on record as “dramatically decreased”. In addition, on thioredoxin reductase [7], the “thioredoxin reductase activity, ΔA412/min” value is “decreased by YJB02 in a dose dependent manner”. The viability at 24 h, 200 μmol/L in “in vitro” was 75%.
